In paper PMC3798069 (Journal of medicinal chemistry, 2012):
Marks after values point to notes of the source that are not given here.

Tests used:
Assay type in all cases: cell-based
[1] = molecular target: wild-type CqsS (Vibrio cholerae serotype O1, UniProt Q9KM66); details: for QS activity (in words): tested up to 50,000 nM; for maximal % response at the maximum concentration tested: at 50,000 nM, with respect to CAI-1 = 100%
[2] = molecular target: CqsS C170A (Vibrio cholerae serotype O1, UniProt Q9KM66, C170A); experiment: Light-based agonist bioassay with CqsS C170A mutant strain
[3] = molecular target: CqsS C170Y (Vibrio cholerae serotype O1, UniProt Q9KM66, C170Y); experiment: Light-based agonist bioassay with CqsS C170Y mutant strain; details: at 50,000 nM

In the case of CCCCCCCCO [1-octanol], the “QS activity (in words)” value [1] is reported as “no QS activity”.

CCC(O)C(=O)O (stereo not shown) [2-hydroxybutyric acid] was tested, and the “QS activity (in words)” value [1] was “no QS activity”.

CCCCCCCCCC(=O)[C@@H](O)CC [compound 1, S-3-hydroxytridecan-4-one, reference compound] was tested, and the “% Response (percent maximal bioluminescence)” value ([2]; with respect to CAI-1 set at 100%) was 100±44% and the “maximal % response at the maximum concentration tested” value (“maximal % response” for short) [3] was 20 ^c %.

With CCCCCCCCOC(=O)C(O)CC (stereo not shown) [compound 9, Octyl 2-hydroxybutanoate] the “maximal % response” value [3] was 66 ^c %.

With CCCCOC(=O)C(O)CC (stereo not shown) [compound 17, Butyl 2-hydroxybutanoate] the “maximal % response” value [1] was 23 ^c % and the “QS activity (in words)” value [1] was “nearly complete loss of QS activity”.

With CCCCCCOC(=O)C(O)CC (stereo not shown) [compound 18, Hexyl 2-hydroxybutanoate] the “fold less active (higher EC50) than C8-ester-CAI-1 (9)” value (from here on “fold less active”) [1] was “greater than 4 fold”.

With CCCCCCCOC(=O)C(O)CC (stereo not shown) [compound 19, Heptyl 2-hydroxybutanoate] the “fold less active” value [1] was 2 fold.

With CCCCCCCCCOC(=O)C(O)CC (stereo not shown) [compound 20, Nonyl 2-hydroxybutanoate] the “fold more active (lower EC50) than C8-ester-CAI-1 (9)” value [1] was 2 fold.

CCCCCCCCCCOC(=O)C(O)CC (stereo not shown) [compound 21, Decyl 2-hydroxybutanoate] was tested, and the “fold less active” value [1] was “greater than 4 fold”.

In the case of CCCCCOCCOC(=O)C(O)CC (stereo not shown) [compound 22, 2-(Pentyloxy)ethyl 2-hydroxybutanoate], the “fold less active” value [1] is reported as greater than 13 fold.

In the case of CCOCCOCCOC(=O)C(O)CC (stereo not shown) [compound 23, 2-Hydroxy-2-(2-ethoxyethoxy)ethylbutanoate], the “maximal % response” value [1] is reported as 31 ^c % and the “QS activity (in words)” value [1] is reported as “only minimal QS activity”.

For CCCCCCOCCOC(=O)C(O)CC (stereo not shown) [compound 24, 2-(Hexyloxy)ethyl 2-hydroxybutanoate], the “fold less active” value [1] was greater than 13 fold.

CCCCC/C=C/COC(=O)C(O)CC (stereo not shown) [compound 26, (E)-Oct-2-en-1-yl 2-hydroxybutanoate] was tested, and the “fold more active (lower EC50) than C8-ester-CAI-1 (9)” value [1] was 3 fold.

In the case of CCCC/C=C/CCOC(=O)C(O)CC (stereo not shown) [compound 29, (E)-Oct-3-en-1-yl 2-hydroxybutanoate], the “fold less active” value [1] is reported as greater than 4 fold.

For CCC/C=C/CCCOC(=O)C(O)CC (stereo not shown) [compound 32, (E)-Oct-4-enyl 2-hydroxybutanoate], the “fold less active” value [1] was 1.5 fold.

For CC/C=C/CCCCOC(=O)C(O)CC (stereo not shown) [compound 34, (E)-Oct-5-enyl 2-hydroxybutanoate], the “fold less active” value [1] was greater than 4 fold.

In the case of CCC(O)C(=O)OCCCCc1ccccc1 (stereo not shown) [compound 37, 4-Phenylbutyl 2-hydroxybutyrate], the “maximal % response” value ([2]; at 50,000 nM) is reported as 16 ^c % and the “maximal % response” value [3] is reported as 22 ^c %.

In the case of CCC(O)C(=O)OCCCCCc1ccccc1 (stereo not shown) [compound 38, 5-Phenylpentyl 2-hydroxybutyrate], the “maximal % response” value [3] is reported as 19 ^c %.

CCCCc1ccccc1COC(=O)C(O)CC (stereo not shown) [compound 44, 1-(o-Butyl-phenyl)methyl 2-hydroxybutyrate] was tested, and the “fold less active” value [1] was greater than 278 fold and the “QS activity (in words)” value [1] was “very weak responses”.

For CCCCCc1cccc(COC(=O)C(O)CC)c1 (stereo not shown) [compound 46, 1-(m-Pentyl-phenyl)methyl 2-hydroxybutyrate], the “fold less active” value [1] was greater than 9 fold.

In the case of CCc1ccccc1CCCOC(=O)C(O)CC (stereo not shown) [compound 49, 3-(o-Ethyl-phenyl)propyl 2-hydroxybutyrate], the “fold less active” value [1] is reported as greater than 278 fold, the “maximal % response” value [1] is reported as 28 ^c % and the “QS activity (in words)” value [1] is reported as “very weak responses”.
